Results reported in US20120225817A1, “THERAPEUTIC AGENT FOR GASTROINTESTINAL DISEASE” (Santen Pharmaceutical Co., Ltd., priority 2009, published 2012).
Residues, ends and D or L forms follow the SMILES beside them.

System: Caco-2 cells
Test: Effect on migration of gastrointestinal mucosal tissue cells (cut in a confluent Caco-2 cell layer, cell spreading area)
Assay type: cell-based, human
Details: for Migration of Caco-2 cells (%): 18 hours, control = 100%, mean ± standard error, 8 samples
Description: An effect on cell migration was studied by the following method using Caco-2 cells which are a human colon cancer cell line.
In a 24-well plate coated with type IV collagen, Caco-2 cells were seeded at […] cells per well and cultured to confluence in a DMEM medium containing 10% FBS. A cut was formed in the cell layer using a razor blade, and a cell-free region was created with a cotton swab. After washing with a DMEM medium containing 1% FBS, the cells were cultured for 18 hours in the same medium containing each test compound under conditions of 37° C. and 5% CO2. The effect on the migration of Caco-2 cells was studied by taking pictures before adding the test compound and at 18 hours after the addition of the test compound and comparing cell spreading areas in a fixed region at 18 hours after the addition of the test compounds. Further, Caco-2 cells cultured in the same manner in the medium without containing the test compound were used as a control.
The results of the case where a single agent of SSSR was used are shown in Table 1, and the results of the case where SSSR and FGLM-NH2 were used in combination are shown in Table 2. In the tables, the migration of the Caco-2 cells is expressed as a mean and standard error calculated from the results of 8 samples for each test compound by taking the migration of the control cells as a standard (100%). Incidentally, the symbol “★★” indicates a statistical significance at a P value of <0.001 compared to the control.

Migration of Caco-2 cells (%) (SSSR 10 nM)	Migration of Caco-2 cells (%) (SSSR 30 μM)	Effect on migration of Caco-2 cells (in words) (SSSR trifluoroacetate at 30 μM)	Migration of Caco-2 cells (%) (FGLM-NH2 20 μM)	SMILES	Effect on migration of Caco-2 cells (in words) (single agent, SSSR trifluoroacetate at 10 nM)	Effect on migration of Caco-2 cells (in words) (single agent, FGLM-NH2 trifluoroacetate at 20 μM)
109.7 ± 5.1%	125.0 ± 2.0 %	promotes the migration of Caco-2 cells		N=C(N)NCCC[C@H](NC(=O)[C@H](CO)NC(=O)[C@H](CO)NC(=O)[C@@H](N)CO)C(=O)O [SSSR, Ser-Ser-Ser-Arg] (H-SSSR-OH; N-terminus and C-terminus assumed)	does not promote the migration of Caco-2 cells	
			105.9 ± 3.9%	CSCC[C@H](NC(=O)[C@H](CC(C)C)NC(=O)CNC(=O)[C@@H](N)Cc1ccccc1)C(N)=O [FGLM-NH2, Phe-Gly-Leu-Met-NH2] (H-FGLM-NH2; N-terminus assumed)		does not promote the migration of Caco-2 cells
